Test results: patent US8017644B2, “2-arylindole derivatives as nPGES-1 inhibitors” (Aziende Chimiche Riunite Angelini Francesco A.C.R.A.F. …, priority 2006, dated 2011)

Columns and labels:
[1] = tested on: production of PGE2 in A549 cells (mPGES-1); experiment: Inhibition of PGE2 production in IL-1β-stimulated A549 cells (EIA); type: cell-based; conditions: Homo sapiens; for inhibition at 10 µM: compound at 10 μm; for IC50: IL-1β-stimulated, read-out: pIC50 PGE2 (converted)
Source text: (§1) The test used makes it possible to evaluate the inhibitory capacity of the test compounds on the production of PGE2 and the selectivity relative to the production of PGF2α. The human pulmonary adenocarcinoma cell line A549 was used, which is particularly sensitive to stimulation with proinflammatory cytokines, for instance IL-1β, and, in response to this stimulation, is particularly active in the production and release of two prostanoids: PGE2 and PGF2α (Thoren S. Jakobsson P-J, 2000).
(§2) The cells were stimulated with IL-1β (10 ng/ml) and simultaneously treated with the test compound for 22 hours in a suitable culture medium (DMEM—Dulbecco's Modified Eagles Medium) enriched with 5% fetal calf serum and L-glutamine (4 mM final) in an incubator at 37° C. and with a CO2 concentration of 5%.
(§3) At the end of the incubation, the amount of PGE2 and PGF2α, produced and released into the supernatant were assayed using an EIA kit (produced and sold by Cayman Chemicals, Ann Arbor, Mich., USA).
(§4) The comparative compound used was indomethacin at a concentration of 10 nM (Sigma-Aldrich), which is a non-steroidal anti-inflammatory drug that inhibits in equal measure both PGE2 and PGF2α.
(§5) For illustrative purposes, Table 3 collates the pIC50 values of a number of compounds of the invention, where pIC50 represents the negative logarithm of the IC50, which, in turn, represents the concentration of compound that inhibits the production of PGE2 or PGF2α by 50% relative to cells that are stimulated but not treated with the same compound.

[2] = tested on: production of PGF2α in A549 cells; experiment: Inhibition of PGF2α production in IL-1β-stimulated A549 cells (EIA), selectivity; type: cell-based; conditions: Homo sapiens; for inhibition at 10 µM: compound at 10 μm; for IC50: IL-1β-stimulated, read-out: pIC50 PGF2α (converted)
Source text: as §1, §2, §3, §4, §5

[3] = tested on: production of PGE2 in U-937 cells (cPGES); experiment: Inhibition of basal PGE2 production in U-937 cells (selectivity between isoforms of PGES); type: cell-based; conditions: Homo sapiens, basal conditions; for inhibition at 10 µM: compound at 10 μM
Source text: The test used makes it possible to evaluate the capacity of the compounds of the invention to inhibit the production of PGE2 in a human lymphoma cell line U-937 that preferentially expresses an enzymatic isoform (cPGES), which is responsible for the production of PGE2 under basal conditions, in the absence of pro-inflammatory stimuli. This enzymatic form is different from the one predominantly expressed in the A549 cells (mPGES-1) after a pro-inflammatory stimulus.
The absence of inhibitory activity on PGE2 in this cell model ensures the selectivity of the compound compared with the enzymatic form responsible for the production of PGE2 in the presence of inflammatory stimuli.
The reference compound used was indomethacin at a concentration of 10 nM.

[4] = tested on: acetic acid-induced stretching in mice; experiment: Acetic acid-induced stretching in mice (inflammatory pain); type: in vivo; conditions: female CD-1 mice; for No. of stretches: 20 minutes after acetic acid, vehicle 52; for % inhibition (stretches): vs vehicle (MTC)
Experimental: The test compound was evaluated in the model of acetic acid-induced stretching in mice (Stock J. L. et al., J Clin Inv 2001, 107: 325-331). This test makes it possible to evaluate the antinociceptive activity of the compounds of the invention in a model of inflammatory pain.
Female CD-1 mice weighing 25-30 g were used for the test. The animals were treated intraperitoneally with the test compound (0.1-10 mg/kg) suspended in methylcellulose (MTC). The control animals were treated with the vehicle alone (MTC) via the same route.
30 minutes after the treatment, the animals received an intraperitoneal injection of acetic acid (0.7 v/v in physiological solution, 16 μl/g of body weight) in order to induce inflammatory pain and to check the effects of the test compound on the nociceptive response.
Immediately after the administration of acetic acid and for the following 20 minutes, the number of stretches, which represents the parameter for evaluation of the nociceptive response, was measured.

[5] = indomethacin at 10 nM, IL-1β 10 ng/ml, 22 hours

Row | SMILES | inhibition at 10 µM ([1]; IL-1β 10 ng/ml, 22 hours) [%] | inhibition at 10 µM ([2]; IL-1β 10 ng/ml, 22 hours) [%] | inhibition at 10 µM [3] [%] | IC50 [1] [nM] | further results
1 | CCOc1ccc(-c2cc3cc(NC(=O)c4ccccc4Cl)ccc3n2CC)cc1 [Compound 21] | 66 | < 20 | – | – | –
2 | CCn1c(-c2cccc(F)c2)cc2cc(NC(=O)c3ccccc3Cl)ccc21 [Compound 5] | 91 | 36 | – | – | –
3 | CCn1c(-c2ccc(C)cc2)cc2cc(NC(=O)c3ccccc3Cl)ccc21 [Compound 20] | 75 | < 20 | < 20 | 3160 | IC50 [2]: > 100000 nM
4 | CCn1c(-c2ccccc2)c(C)c2cc(NC(=O)c3ccccc3Cl)ccc21 [Compound 7] | 90 | 39 | – | – | –
5 | CCn1c(-c2cccc(Cl)c2C)cc2cc(NC(=O)c3ccccc3Cl)ccc21 [Compound 28] | 65 | < 20 | – | – | –
6 | CCn1c(-c2ccc(OC)cc2)cc2cc(NC(=O)c3ccccc3Cl)ccc21 [Compound 30] | 75 | < 20 | – | – | –
7 | CCn1c(-c2ccccc2)cc2cc(NC(=O)c3cc([N+](=O)[O-])ccc3Cl)ccc21 [Compound 12] | 75 | < 20 | – | – | –
8 | CCn1c(-c2ccc(OCc3ccccc3)cc2)cc2cc(NC(=O)c3ccccc3Cl)ccc21 [Compound 22] | 79 | < 20 | – | – | –
9 | CCn1c(-c2ccccc2)cc2cc(NC(=O)c3cc(Cl)ccc3Cl)ccc21 [Compound 13] | 100 | 36 | 30 | 794 | –
10 | CCn1c(-c2ccccc2F)cc2cc(NC(=O)c3ccccc3Cl)ccc21 [Compound 4] | 72 | < 20 | – | – | –
11 | CCn1c(-c2ccccc2C)cc2cc(NC(=O)c3ccccc3Cl)ccc21 [Compound 18] | 66 | < 20 | < 20 | 2510 | –
12 | CCn1c(-c2ccccc2)cc2cc(NC(=O)c3c(Cl)cccc3Cl)ccc21 [Compound 10] | 76 | < 20 | 22 | 2000 | IC50 [2]: > 100000 nM
13 | CCn1c(-c2ccccc2)cc2cc(NC(=O)c3ccccc3[N+](=O)[O-])ccc21 [Compound 16] | 74 | < 20 | – | – | –
14 | CCn1c(-c2ccc(C)c(C)c2)cc2cc(NC(=O)c3ccccc3Cl)ccc21 [Compound 29] | 91 | < 20 | – | – | –
15 | CCn1c(-c2ccccc2)cc2cc(NC(=O)c3ccccc3Cl)ccc21 [Compound 2] | 76 | < 20 | < 20 | 2000 | No. of stretches ([4]; 0.1 mg/kg intraperitoneally): 38; % inhibition (stretches) ([4]; 0.1 mg/kg intraperitoneally): 27%; No. of stretches ([4]; 1 mg/kg intraperitoneally): 36; % inhibition (stretches) ([4]; 1 mg/kg intraperitoneally): 31%; No. of stretches ([4]; 10 mg/kg intraperitoneally): 25; % inhibition (stretches) ([4]; 10 mg/kg intraperitoneally): 52%
16 | CCn1c(-c2ccccc2)cc2cc(NC(=O)c3ccccc3C(F)(F)F)ccc21 [Compound 9] | 100 | < 20 | < 20 | 1260 | IC50 [2]: 50100 nM
17 | Cn1c(-c2ccccc2)cc2cc(NC(=O)c3ccccc3Cl)ccc21 [Compound 1] | 63 | < 20 | – | – | –
18 | COc1ccc2c(c1)c(CC(=O)O)c(C)n2C(=O)c1ccc(Cl)cc1 [Indomethacin, indomethacin, reference compound] | – | – | – | 5.01 | inhibition at 0.01 µM ([3]; indomethacin at 10 nM): 78%; inhibition at 0.01 µM [1, 5]: 100%; IC50 [2]: 2.51 nM; inhibition at 0.01 µM [2, 5]: 100%
19 | CCn1c(-c2ccc(Cl)c(C)c2)cc2cc(NC(=O)c3ccccc3Cl)ccc21 [Compound 25] | 89 | < 20 | – | – | –
20 | CCn1c(-c2cccc3ccccc23)cc2cc(NC(=O)c3ccccc3Cl)ccc21 [Compound 24] | 79 | < 20 | – | – | –
21 | CCn1c(-c2cccc(C)c2)cc2cc(NC(=O)c3ccccc3Cl)ccc21 [Compound 19] | 87 | 43 | < 20 | 1000 | IC50 [2]: 100000 nM
22 | CCn1c(-c2ccc(F)cc2)cc2cc(NC(=O)c3ccccc3Cl)ccc21 [Compound 6] | 82 | < 20 | < 20 | 1580 | –
23 | CC(C)n1c(-c2ccccc2)cc2cc(NC(=O)c3ccccc3Cl)ccc21 [Compound 3] | 91 | 34 | – | – | –
